Measured values from publication PMC6689975, “Novel Cell Wall Antifungals Reveal a Special Synergistic Activity in pbr1 Mutants Resistant to the Glucan Synthesis Antifungals Papulacandins and Echinocandins” (Frontiers in Microbiology, 2019).
≈ marks a conversion by molar mass, not a printed value.

What was measured:
[1] = system: Candida albicans C. a.^g (Table 6); assay: microbe, parasite or virus in culture; parameters: species or system yeast; micro tube dilution MIC in YES (± 1.2 M sorbitol), complete growth inhibition by turbidity; conditions: 48 h, read-out: MIC
Procedure, shortened: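 YEPD/YES ± 1.2 M sorbitol; 2 X 10^6 cells/ml early log phase; cpd 0–200 μg/ml, 2% DMSO; 30°C, roller; turbidity 24 h + 48 h; MIC = no visible growth; n ≥ 3.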

C. albicans wild-type = assay: microbe, parasite or virus in culture; parameters: species or system whole yeast cells; micro-culture broth dilution MIC in YES at 30 C, turbidity, complete growth inhibition; conditions: Candida albicans; YES medium, C. albicans strain f

Structure (SMILES)	MIC [1]	MIC (C. albicans wild-type)
CC[C@H](C)C[C@H](C)CCCCCCCCC(=O)N[C@H]1C[C@@H](O)[C@@H](NCCN)NC(=O)[C@@H]2[C@@H](O)CCN2C(=O)[C@H]([C@H](O)CCN)NC(=O)[C@H]([C@H](O)[C@@H](O)c2ccc(O)cc2)NC(=O)[C@@H]2C[C@@H](O)CN2C(=O)[C@H]([C@@H](C)O)NC1=O [caspofungin]	50 µg/mL (≈ 45.7 µM)	
O=c1oc2ccc3ccccc3c2cc1-c1ccccc1CO [compound 12]		> 200 µg/mL
O=c1oc2ccccc2cc1-c1ccccc1CO [compound 15]		> 200 µg/mL
